Experiments:
Test in all cases: relative viability (nuclei count vs DMSO), 5 days (fraction); higher = more cells survive
Crenolanib + Pictilisib = compound: CC1(COc2ccc3c(c2)ncn3-c2ccc3cccc(N4CCC(N)CC4)c3n2)COC1 [Crenolanib] + CS(=O)(=O)N1CCN(Cc2cc3nc(-c4cccc5[nH]ncc45)nc(N4CCOCC4)c3s2)CC1 [Pictilisib] (partner 1 µM)
Outline: (§1)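 Relative viability was taken as the ratio of nuclei in treated wells to nuclei in vehicle wells. Lung cancer cell lines in 1536-well plates received compounds by pin tool one day after seeding, either one drug alone or a fixed anchor-drug dose plus five library-drug doses (not always all listed) in √10 steps. Nuclei were counted on 4× images after 5 days of treatment, and values are medians of duplicate plates.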

Crenolanib + Decitabine = compound: CC1(COc2ccc3c(c2)ncn3-c2ccc3cccc(N4CCC(N)CC4)c3n2)COC1 [Crenolanib] + Nc1ncn([C@H]2C[C@H](O)[C@@H](CO)O2)c(=O)n1 [Decitabine] (partner 2 µM)
Outline: as §1

Tivantinib + Trametinib = compound: O=C1NC(=O)[C@@H](c2cn3c4c(cccc24)CCC3)[C@@H]1c1c[nH]c2ccccc12 [Tivantinib] + CC(=O)Nc1cccc(-n2c(=O)n(C3CC3)c(=O)c3c(Nc4ccc(I)cc4F)n(C)c(=O)c(C)c32)c1 [Trametinib] (partner 0.02 µM)
Outline: as §1

Tivantinib + AZD7762 = compound: O=C1NC(=O)[C@@H](c2cn3c4c(cccc24)CCC3)[C@@H]1c1c[nH]c2ccccc12 [Tivantinib] + NC(=O)Nc1cc(-c2cccc(F)c2)sc1C(=O)N[C@H]1CCCNC1 [AZD7762] (partner 0.2 µM)
Outline: as §1

Cell Line	relative viability (Crenolanib + Pictilisib; first compound 0.01 µM)	relative viability (Crenolanib + Pictilisib; first compound 0.03162 µM)	relative viability (Crenolanib + Pictilisib; first compound 0.1 µM)	relative viability (Crenolanib + Pictilisib; first compound 0.3162 µM)	relative viability (Crenolanib + Pictilisib; first compound 1 µM)	relative viability (Crenolanib + Decitabine; first compound 0.01 µM)	relative viability (Crenolanib + Decitabine; first compound 0.03162 µM)	relative viability (Crenolanib + Decitabine; first compound 0.1 µM)	relative viability (Crenolanib + Decitabine; first compound 0.3162 µM)	relative viability (Crenolanib + Decitabine; first compound 1 µM)	relative viability (Tivantinib + Trametinib; first compound 0.01 µM)	relative viability (Tivantinib + Trametinib; first compound 0.03162 µM)	relative viability (Tivantinib + Trametinib; first compound 0.1 µM)	relative viability (Tivantinib + Trametinib; first compound 0.3162 µM)	relative viability (Tivantinib + AZD7762; first compound 0.01 µM)	relative viability (Tivantinib + AZD7762; first compound 0.03162 µM)	relative viability (Tivantinib + AZD7762; first compound 0.1 µM)	relative viability (Tivantinib + AZD7762; first compound 0.3162 µM)
NCI-H1734	0.436	0.494	0.443	0.477	0.432	0.55	0.549	0.507	0.591	0.507	0.611	0.676	0.677	0.604	0.6	0.487	0.505	0.478
NCI-H1755	0.423	0.408	0.397	0.399	0.393	0.678	0.74	0.743	0.743	0.697	0.78	0.748	0.666	0.771	0.457	0.476	0.47	0.424
NCI-H1792	0.32	0.34	0.29	0.269	0.195	0.567	0.555	0.488	0.569	0.56	0.421		0.394	0.37	0.653		0.644	0.589
NCI-H1793	0.302	0.315	0.322	0.312	0.385	0.649	0.495	0.537	0.549	0.475	0.506	0.408	0.404	0.329	0.355	0.645	0.412	0.378
NCI-H1915	0.871	0.957	0.932	0.915	0.586	0.26	0.275	0.275	0.247	0.264	0.287	0.294	0.282	0.276	0.654	0.771	0.629	0.665
NCI-H1944	0.367	0.351	0.37	0.346	0.304	0.474	0.441	0.423	0.468	0.458	0.449	0.406	0.444	0.345	0.513	0.511	0.472	0.426
NCI-H1975	0.271	0.307	0.247	0.283	0.214	0.376	0.475	0.412	0.375	0.349	0.323	0.338	0.33	0.298	0.734	0.667	0.714	
NCI-H1993	0.778	0.805	0.71	0.858	0.825	0.578	0.629	0.615	0.62	0.651	0.545	0.462	0.565	0.437	0.768	0.715	0.656	0.455
NCI-H2085	0.45	0.412	0.481	0.469	0.5		0.538	0.517	0.546	0.534	0.62	0.484	0.544	0.516	1.01	0.944	0.942	0.813

From the supplement of paper PMC10307832
